Experimental data: PubChem BioAssay (NCI)
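Abbreviation: GI50, concentration required for 50% inhibition of growth. TGI: concentration producing complete growth inhibition.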

Experiments:
Test in all cases: inhibition of tumour cell growth, NCI panel, 384-well format
[1] = system: M14 melanoma
[2] = system: SK-MEL-28 melanoma
[3] = system: CCRF-CEM leukemia
[4] = system: NCI-H460 NSCLC
[5] = system: U251 glioblastoma
[6] = system: UACC-257 melanoma
[7] = system: RPMI-8226 leukemia
[8] = system: OVCAR-3 ovarian
[9] = system: CAKI-1 renal
[10] = system: LOX IMVI melanoma
[11] = system: SK-OV-3 ovarian
[12] = system: SNB-19 CNS
[13] = system: PC-3 prostate
[14] = system: IGROV1 ovarian
[15] = system: NCI-H23 lung
[16] = system: MDA-MB-468 breast
[17] = system: NCI/ADR-RES ovarian
[18] = system: A498 renal
[19] = system: SF-295 CNS
[20] = system: BT-549 breast
[21] = system: SF-539 CNS
[22] = system: OVCAR-5 ovarian
[23] = system: NCI-H226 lung
[24] = system: MALME-3M melanoma
[25] = system: MDA-MB-435 melanoma
[26] = system: HT29 colon
[27] = system: SN12C renal
[28] = system: OVCAR-8 ovarian
[29] = system: NCI-H522 lung
[30] = system: HL-60(TB) leukemia
[31] = system: HCT-116 colon
[32] = system: MOLT-4 leukemia
[33] = system: HCC-2998 colon
[34] = system: HOP-92 NSCLC
[35] = system: SNB-75 CNS
[36] = system: UACC-62 melanoma
[37] = system: UO-31 renal
[38] = system: OVCAR-4 ovarian
[39] = system: KM12 colon
[40] = system: EKVX NSCLC
[41] = system: HOP-62 NSCLC
[42] = system: SR leukemia
[43] = system: T-47D breast
[44] = system: DU-145 prostate
[45] = system: HCT-15 colon
[46] = system: SF-268 CNS
[47] = system: MDA-MB-231 breast
[48] = system: SW-620 colon
[49] = system: HS 578T breast
[50] = system: 786-0 renal
[51] = system: NCI-H322M lung
[52] = system: MCF7 breast
[53] = system: A549 NSCLC
[54] = system: COLO 205 colon
[55] = system: ACHN renal
[56] = system: SK-MEL-5 melanoma
[57] = system: TK-10 renal
[58] = system: RXF 393 renal

CCN(c1cc(-c2ccc(CN3CCOCC3)cc2)cc(C(=O)NCc2c(C)cc(C)[nH]c2=O)c1C)C1CCOCC1
GI50 [1]: > 100 µM | TGI [1]: > 100 µM | GI50 [2]: > 100 µM | TGI [2]: > 100 µM | GI50 [3]: > 100 µM | TGI [3]: > 100 µM | GI50 [4]: > 100 µM | TGI [4]: > 100 µM | GI50 [5]: > 100 µM | TGI [5]: > 100 µM | GI50 [6]: > 100 µM | TGI [6]: > 100 µM | GI50 [7]: 1.39 µM | TGI [7]: > 100 µM | GI50 [8]: > 100 µM | TGI [8]: > 100 µM | GI50 [9]: > 69.4 µM | TGI [9]: > 100 µM | GI50 [10]: > 51.5 µM | TGI [10]: > 100 µM | GI50 [11]: > 100 µM | TGI [11]: > 100 µM | GI50 [12]: > 100 µM | TGI [12]: > 100 µM | GI50 [13]: > 100 µM | TGI [13]: > 100 µM | GI50 [14]: > 91.5 µM | TGI [14]: > 100 µM | GI50 [15]: > 100 µM | TGI [15]: > 100 µM | GI50 [16]: > 100 µM | TGI [16]: > 100 µM | GI50 [17]: > 100 µM | TGI [17]: > 100 µM | GI50 [18]: > 81.8 µM | TGI [18]: > 100 µM | GI50 [19]: > 100 µM | TGI [19]: > 100 µM | GI50 [20]: > 37.1 µM | TGI [20]: > 63.9 µM | GI50 [21]: > 100 µM | TGI [21]: > 100 µM | GI50 [22]: > 100 µM | TGI [22]: > 100 µM | GI50 [23]: > 100 µM | TGI [23]: > 100 µM | GI50 [24]: > 100 µM | TGI [24]: > 100 µM | GI50 [25]: > 100 µM | TGI [25]: > 100 µM | GI50 [26]: > 100 µM | TGI [26]: > 100 µM | GI50 [27]: > 100 µM | TGI [27]: > 100 µM | GI50 [28]: > 100 µM | TGI [28]: > 100 µM | GI50 [29]: > 100 µM | TGI [29]: > 100 µM | GI50 [30]: > 49.7 µM | TGI [30]: > 85.8 µM | GI50 [31]: > 77.3 µM | TGI [31]: > 100 µM | GI50 [32]: 68.4 µM | TGI [32]: > 100 µM | GI50 [33]: > 100 µM | TGI [33]: > 100 µM | GI50 [34]: > 90.3 µM | TGI [34]: > 100 µM | GI50 [35]: > 100 µM | TGI [35]: > 100 µM | GI50 [36]: > 100 µM | TGI [36]: > 100 µM | GI50 [37]: > 100 µM | TGI [37]: > 100 µM | GI50 [38]: > 100 µM | TGI [38]: > 100 µM | GI50 [39]: > 100 µM | TGI [39]: > 100 µM | GI50 [40]: > 100 µM | TGI [40]: > 100 µM | GI50 [41]: > 100 µM | TGI [41]: > 100 µM | GI50 [42]: > 75.7 µM | TGI [42]: > 100 µM | GI50 [43]: > 100 µM | TGI [43]: > 100 µM | GI50 [44]: > 100 µM | TGI [44]: > 100 µM | GI50 [45]: 98.3 µM | TGI [45]: > 100 µM | GI50 [46]: > 100 µM | TGI [46]: > 100 µM | GI50 [47]: > 100 µM | TGI [47]: > 100 µM | GI50 [48]: > 100 µM | TGI [48]: > 100 µM | GI50 [49]: > 100 µM | TGI [49]: > 100 µM | GI50 [50]: > 85.4 µM | TGI [50]: > 100 µM | GI50 [51]: > 100 µM | TGI [51]: > 100 µM | GI50 [52]: > 100 µM | TGI [52]: > 100 µM | GI50 [53]: > 76.9 µM | TGI [53]: > 100 µM | GI50 [54]: > 100 µM | TGI [54]: > 100 µM | GI50 [55]: > 100 µM | TGI [55]: > 100 µM | GI50 [56]: > 100 µM | TGI [56]: > 100 µM | GI50 [57]: > 100 µM | TGI [57]: > 100 µM | GI50 [58]: > 60.3 µM | TGI [58]: > 100 µM
